“Also recorded” adds a separate entry of the source.
Legend:
Format in all cases: in vivo
female BALB/c mouse [1] = assay: Hapten-induced atopic dermatitis model (Example 13); details: for itch / number of scratches in scratch test: 10 minutes, day 13, four hours after last challenge; for immune cell infiltration: histopathology; for immune cell infiltration / epidermal thickness / histopathological changes / histopathology score: back skin; for epidermal thickness / histopathological changes / histopathology score / IL-4 expression: prophylactic; for IL-4 expression / dermatitis severity scores: vs hapten vehicle control; for dermatitis severity scores: twice a day, 14 days
Method: Experimental details: Preclinical animal model of atopic dermatitis was developed by [COMPOUND LEFT OUT] [COMPOUND LEFT OUT], a Hapten. In the current study, the test item Compound 2 was screened to evaluate its efficacy in [COMPOUND LEFT OUT] induced AD model. 0.15% of [COMPOUND LEFT OUT] was topically applied to 7-8 weeks old female BALB/c mouse from G2-G7 group at a volume of 100 μl/mouse on back skin once in 3 days to induced disease. For the G1 group, (Vehicle control) the same volume of acetone and olive oil (3:1) that was used to solubilize [COMPOUND LEFT OUT] was applied. Dexamethasone (5 mg/kg, p.o, qd) was dosed per oral once a day to G3 group animals. Compound 2 was administered twice a day to respective treatment groups (G4-G6) for 14 days. On the day of [COMPOUND LEFT OUT] administration, test compounds were dosed one hour prior to [COMPOUND LEFT OUT] insult. Clinical scores to assess the disease intensity were measured from visual examination for erythema, scaling, excoriation, and back skin thickness using dial caliper. All the scores were carried by blinded observers to treatment groups. Cumulative dermatitis severity scores were calculated by adding up the individual scores of erythema, scaling, thickness & excoriation. On day-13 of the study, four hours after the last [COMPOUND LEFT OUT] challenge, scratching behavior was recorded using a web camera in acrylic observational chambers. The number of scratches were measured for 10 minutes. Later, all the animals were terminally bled under mild anesthesia followed by humane sacrifice and back skin tissue was dissected. Required skin tissue samples were collected in fixative and part of the tissue was flash-frozen in liquid nitrogen and stored at −80 °C. Collected tissue samples were processed and used for biomarker analysis using gene and protein expression analysis by qPCR & ELISA, pharmacokinetic analysis by LC-MS and histopathology studies.

female BALB/c mouse [2] = assay: MC-903 induced atopic dermatitis model, prophylactic (Example 12); details: for immune cell infiltration: histopathology, back skin; for IL-31 expression: itch marker
Method: Experimental details: Preclinical animal model of atopic dermatitis was developed by MC-903, a vitamin-D analogue. In the current study, the test item Compound 2 was screened to evaluate its efficacy in MC-903 induced AD model. 2 nmol of MC-903 was topically applied to 8-10 weeks old female BALB/c mouse from G2-G7 group at a volume of 50 μl/mouse on back skin on every alternate day for 14 days to induced disease. For the G1 group, (Normal+ethanol control) the same volume of ethanol that was used to solubilize MC-903 was applied. Clobetasol (0.05%, 20 mg) was applied topically once a day to G3 group animals. Compound 2 was administered twice a day to respective treatment groups (G4-G7) for 14 days. On the day of MC-903 administration, test compounds were dosed one hour prior to MC-903 insult. Clinical scores to assess the disease intensity were measured from visual examination for erythema, scaling and back skin thickness using dial caliper. All the scores were carried by blinded observers to treatment groups. Cumulative dermatitis severity scores were calculated by adding up the individual scores of erythema, scaling & thickness. On day-14 of the study, all animals were terminally bled under mild anesthesia followed by humane sacrifice and back skin tissue was dissected. Required skin tissue samples were collected in fixative and part of the tissue was flash-frozen in liquid nitrogen and stored at −80 °C. Collected tissue samples were processed and used for biomarker analysis using gene and protein expression analysis by qPCR & ELISA, pharmacokinetic analysis by LC-MS and histopathology studies.

female BALB/c mouse [3] = assay: MC-903 induced atopic dermatitis model, therapeutic mode, vs oral JAK-i (Example 15); details: twice a day; for dermatitis severity scores: vs MC-903 vehicle control
Method: Experimental details: Preclinical animal model of atopic dermatitis was developed by MC-903, a vitamin-D analogue. In the current study, the test item Compound 2 was screened in therapeutic mode, to evaluate its efficacy in MC-903 induced AD model. 2 nmol of MC-903 was topically applied to 8-10 weeks old female BALB/c mouse from G2-G8 group at a volume of 50 μl/mouse on back skin on every alternate day for 14 days to induced disease. For the G1 group, (Normal+ethanol control) the same volume of ethanol that was used to solubilize MC-903 was applied. Clobetasol (0.05%, 15 mg/mouse) was applied topically once a day to G3 group animals, Upadacitinib was dosed oral twice a day at 2, 6 & 20 mg/kg to G4, G5 & G6 respectively. Compound 2 was administered twice a day to respective treatment groups (G7-G10) for 14 days. On the day of MC-903 administration, test compounds were dosed one hour prior to MC-903 insult. Clinical scores to assess the disease intensity were measured from visual examination for erythema, scaling and back skin thickness using dial caliper. All the scores were carried by blinded observers to treatment groups. Disease severity was assessed by dermatitis severity scores.

[4] = twice a day, 14 days, vs MC-903 vehicle control

C[C@@]12CCC(=O)N[C@@](C)(CO)[C@H]1CC[C@@]1(C)O[C@H](C3=CCOC3=O)C[C@@H]21 [Compound 2, (2S,3aR,5aS,6R,10aR,10bS)-6-(hydroxymethyl)-3a,6,10a-trimethyl-2-(2-oxo-2,5-dihydrofuran-3-yl) dodecahydro-8H-benzofuro[5,4-c]azepin-8-one]
itch / number of scratches in scratch test (female BALB/c mouse [1]): reduced | itch / number of scratches in scratch test (female BALB/c mouse [1]; listed as compound 2): reduces itch comparably to current first line therapy | immune cell infiltration (female BALB/c mouse [1]): significantly reduced | immune cell infiltration (female BALB/c mouse [1]; listed as compound 2): reduces immune cell infiltration | epidermal thickness (female BALB/c mouse [1]): significantly reduced | histopathological changes / histopathology score (female BALB/c mouse [1]): significantly reduced | epidermal thickness (female BALB/c mouse [1]; listed as compound 2): significantly reduces | histopathological changes / histopathology score (female BALB/c mouse [1]; listed as compound 2): ameliorates; also recorded: significantly reduces | IL-4 expression (female BALB/c mouse [1]): reduced | IL-4 expression (female BALB/c mouse [1]; listed as compound 2): impacts IL-4 expression | dermatitis severity scores (female BALB/c mouse [1]): Significantly Reduces; also recorded: dose dependent decrease | dermatitis severity scores (female BALB/c mouse [1]; listed as compound 2): dose dependent decrease | neutrophil infiltration (female BALB/c mouse [2]; FIG. 12C): robustly reduces | early barrier alarmins in skin (female BALB/c mouse [2]; FIG. 12G): reduces early barrier alarmins | tissue cytokine expression (female BALB/c mouse [2]; FIG. 12H): impacts tissue cytokine expression | improvement of MC-903-induced atopic dermatitis (female BALB/c mouse [2]; compared with high-potency topical corticosteroids): comparable to high-potency topical corticosteroids | immune cell infiltration (female BALB/c mouse [2]): significantly reduced | immune cell infiltration (female BALB/c mouse [2]; listed as compound 2): reduced dose-dependent immune cell infiltration | histopathological changes and final histopathology scores (female BALB/c mouse [2]; hyperkeratosis, parakeratosis, lengthening and clubbing of rete ridges, vs MC-903 vehicle control): significantly reduced | IL-31 expression (female BALB/c mouse [2]; prophylactic, back skin tissue): significantly reduced | IL-31 expression (female BALB/c mouse [2]; prophylactic, back skin tissue, listed as compound 2): decreases IL-31 expression | NGAL levels (female BALB/c mouse [2]; neutrophil marker, back skin tissue): significantly reduced | NGAL levels (female BALB/c mouse [2]; neutrophil marker, back skin tissue, listed as compound 2): significantly reduces NGAL levels | Lipocalin-2 expression (female BALB/c mouse [2]; neutrophil marker, prophylactic, back skin tissue): significantly reduced | IL-4 expression (female BALB/c mouse [2]; prophylactic, back skin tissue): significantly reduced | IL-13 expression (female BALB/c mouse [2]; prophylactic, back skin tissue): significantly reduced | Krt6a expression (female BALB/c mouse [2]; prophylactic, back skin tissue): significantly reduced | Tissue TSLP expression (female BALB/c mouse [2]; prophylactic, back skin tissue): significantly reduced | dermatitis severity scores (female BALB/c mouse [2]; [4]): dose dependent decrease | epidermal thickness (female BALB/c mouse [2]; [4]): significantly reduced | epidermal thickness (female BALB/c mouse [2]; twice a day, 14 days, vs MC-903 vehicle control, listed as compound 2): robustly reduces epidermal thickness | efficacy compared with oral JAK-i (female BALB/c mouse [3]): Efficacy On-Par with Oral JAK-i | dermatitis severity scores (female BALB/c mouse [3]): significant dose dependent decrease in dermatitis severity scores on-par with oral JAK-i | dermatitis severity scores (female BALB/c mouse [3]; listed as compound 2): significantly reduces dermatitis severity scores on-par with oral JAK-i
